Measured values as given in US8187822B2, “Methods to identify modulators” (Givaudan S.A., priority 2007, dated 2012).

Target: T1, TAS2R16 (Homo sapiens, UniProt Q9NYV7)
T1 construct: The full length gene of human TAS2R44 was amplified by polymerase chain reaction (PCR) using gene-specific primers that span the entire coding region; RSS tag (first 45 amino acids of rat somatostatin receptor subtype 3) (N); expressed in transfected cells; host or cells: HEK293T cells expressing Gα16-gustducin44
T1 sequence (Q9NYV7 1-291): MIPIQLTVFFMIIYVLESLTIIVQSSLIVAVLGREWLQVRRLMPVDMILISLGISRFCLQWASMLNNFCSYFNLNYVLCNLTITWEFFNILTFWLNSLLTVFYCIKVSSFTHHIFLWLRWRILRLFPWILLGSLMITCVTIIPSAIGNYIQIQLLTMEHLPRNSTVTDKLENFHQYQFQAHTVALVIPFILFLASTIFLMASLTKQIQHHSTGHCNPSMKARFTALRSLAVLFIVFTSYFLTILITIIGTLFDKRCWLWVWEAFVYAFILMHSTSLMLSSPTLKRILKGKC
Assay: Fluo-4 calcium assay, cells expressing TAS2R16 (control of antagonist specificity)
Format: cell-based
Settings: for P-β-G + test cpd A ΔF/F0: 25 μM test cpd A
Method: At day 0, the HEK293T cell line expressing Gα16-gustducin44 and a TAS2R bitter taste receptor formed as described in examples 2b or 2c was seeded in antibiotic-free growth medium (standard DMEM with 10% (v/v) heat-inactivated fetal bovine serum, 2 mM L-glutamine[…]) into black wall/clear bottom 96-well plates, coated with poly(ethylenimine) (0.005% v/v) at a concentration of 15,000 cells per well and incubated for 48 hours in humidified atmosphere (37° C., 5% CO2).
At the time of the assay, the growth medium was discarded and the cells were in humidified atmosphere (37° C., 5% CO2) for 1 hour with 50 μl of loading buffer consisting of 1.5 μM Fluo-4 AM and […] probenicid (Sigma-Aldrich, St. Louis, Mo., US) in DMEM.
Afterwards, the 96-well plate was washed 5 times with 100 μl of assay buffer (130 mM NaCl, 5 mM KCl, 10 mM HEPES, 2 mM CaCl2, and 5 mM dextrose, pH 7.4) per well, using an automated plate washer (BioTek). The plate was further incubated for 30 minutes at room temperature in the dark to allow for complete de-esterification of the Fluo-4. Afterwards the plate was washed 5 times with 100 μl of assay buffer per well, and reconstituted with 100 μl of assay buffer per well.
For assay reading, the plate was placed in a Fluorometric Imaging Plate Reader (FLIPR) (FLIPR-TETRA™, Molecular Devices, Sunnyvale, Calif., US), and receptor activation was initiated by addition of 100 μl of a twofold concentrated agonist stock solution (to give the desired agonist end concentration when added to the 100 microliter assay buffer volume), which was prepared in assay buffer.
Fluorescence was continuously monitored for 20 seconds to give a signal baseline (averaged to give F0) prior to agonist addition and for 120 seconds after agonist addition. The change in signal divided by F0 gives ΔF/F0 indicated in the table, with ΔF being the maximum signal occurring within the 120 seconds minus the minimum signal (occurring within the 120 seconds after agonist addition.
All data was collected from at least two independent experiments each carried out in triplicate.
A concentration-response analysis was performed and EC50 values were calculated by nonlinear regression using the function f(x)=(a−d)/(1+(x/C)^nh)+d; with a=minimum signal, d=maximum signal, nh=hill coefficient, C=EC50, and x=agonist concentration. EC50 is the molar concentration of an agonist which produces 50% of the maximum possible effective response for that agonist.
The obtained calcium signals were corrected for the response of cells expressing only the G Protein α subunit (Gα16-gustducin44) and normalized to the fluorescence of cells prior to the stimulus using ΔF/F0 (Fmax−Fmin/F0).
All cells were HEK293T cells stably expressing Gα16-gustducin44, or expressing Gα16-gustducin44 and a TAS2R receptor (TAS2R44, TAS2R16).
The method was carried out as described in example 3 subject to the following modifications: The samples were tested with and without test compound A (test cpd A) and the signals were compared. The test compound was dissolved in dimethylsulfoxide (DMSO), and a negative control with equivalent DMSO concentration (0.02%) was performed accordingly to exclude a potential inhibitory effect of the solvent.
As a control of antagonist specificity, the response of an unrelated bitter taste receptor (TAS2R16) to its agonist phenyl-β-glucopyranosides is also detected (see results in table 8 herein below).

`CC1=CCC(C/C=C/C(=O)O)C1(C)C` (stereo not shown) [test cpd A, (E)-4-(2,2,3-trimethylcyclopent-3-enyl)but-2-enoic acid] was tested, and the “P-β-G + test cpd A ΔF/F0” value (P-β-G 0.0391 mM) was −0.013, the “P-β-G + test cpd A ΔF/F0” value (P-β-G 0.0781 mM) was 0.108 and the “P-β-G + test cpd A ΔF/F0” value (P-β-G 0.1563 mM) was 0.702. For the same compound, the “P-β-G + test cpd A ΔF/F0” value (P-β-G 0.3125 mM) was 1.548, the “P-β-G + test cpd A ΔF/F0” value (P-β-G 0.6250 mM) was 2.139 and the “P-β-G + test cpd A ΔF/F0” value (P-β-G 1.2500 mM) was 2.367. The “P-β-G + test cpd A ΔF/F0” value (P-β-G 2.5000 mM) was 2.480, the “P-β-G + test cpd A ΔF/F0” value (P-β-G 5.0000 mM) was 2.646 and the “P-β-G + test cpd A ΔF/F0” value (P-β-G 10.0000 mM) was 2.830. For the same compound, the “effect on the response of TAS2R16 to phenyl-β-glucopyranoside, in words” value (test compound at 25 μM) was “does not block the response”.
